The structures appear in SMILES notation. Where only a bound is given, the exact number is not on record here.

One data set relates to PC9 and PC9ER cells. Briefly: Cell uptake assay in PC9 versus PC9ER cells. The format is cell-based. The following applies: 1 h incubation. The procedure:
(§1) [^18F]FED6 and [^18F]FED20 were synthesised as previously reported. To increase specific radioactivity of [^18F]FED20, we modified the synthesis by decreasing the amount of alkyne precursor from 1 mg down to 0.5 mg. While this had the desired effect of increasing the specific activity from 7.3 GBq/μmol up to 52 GBq/μmol, the conversion of the alkyne to the triazole product dropped from > 95% down to 45%. Cells were seeded in 6 well plates and [^18F]FED6 (0.22 MBq) or [^18F]FED20 (0.55 MBq or 0.74 MBq) added to each well and incubated at 37°C for 1 h. Media were then removed and cells were washed twice with PBS. The cells were trypsinised and centrifuged for 3 minutes at 2000 rpm to obtain a pellet. The cell pellet was washed once with PBS and resuspended in 200 μL of RIPA buffer. Cell lysates were transferred to gamma counting tubes and the radioactivity in the pellet was measured on a Packard Cobra II gamma counter, (Perkin-Elmer, Waltham, Massachusetts, USA). Protein concentrations of samples were evaluated using Pierce® BCA Protein Assay Kit (Thermo Scientific, Waltham, Massachusetts, USA). Data were expressed as background- and decay-corrected counts per minute (CCPMA) per μg of cellular protein.

A further data set has as its system cells. As to the kind of experiment: Cell uptake assay, overall magnitude of uptake. It is filed as cell-based. How it is done: as §1
For another data set, the target named is T1, EGFR L858R (H3255 cells) (Homo sapiens, UniProt P00533, L858R).
T1 construct: host or cells: H3255
T1 sequence (P00533 25-1210 L858R): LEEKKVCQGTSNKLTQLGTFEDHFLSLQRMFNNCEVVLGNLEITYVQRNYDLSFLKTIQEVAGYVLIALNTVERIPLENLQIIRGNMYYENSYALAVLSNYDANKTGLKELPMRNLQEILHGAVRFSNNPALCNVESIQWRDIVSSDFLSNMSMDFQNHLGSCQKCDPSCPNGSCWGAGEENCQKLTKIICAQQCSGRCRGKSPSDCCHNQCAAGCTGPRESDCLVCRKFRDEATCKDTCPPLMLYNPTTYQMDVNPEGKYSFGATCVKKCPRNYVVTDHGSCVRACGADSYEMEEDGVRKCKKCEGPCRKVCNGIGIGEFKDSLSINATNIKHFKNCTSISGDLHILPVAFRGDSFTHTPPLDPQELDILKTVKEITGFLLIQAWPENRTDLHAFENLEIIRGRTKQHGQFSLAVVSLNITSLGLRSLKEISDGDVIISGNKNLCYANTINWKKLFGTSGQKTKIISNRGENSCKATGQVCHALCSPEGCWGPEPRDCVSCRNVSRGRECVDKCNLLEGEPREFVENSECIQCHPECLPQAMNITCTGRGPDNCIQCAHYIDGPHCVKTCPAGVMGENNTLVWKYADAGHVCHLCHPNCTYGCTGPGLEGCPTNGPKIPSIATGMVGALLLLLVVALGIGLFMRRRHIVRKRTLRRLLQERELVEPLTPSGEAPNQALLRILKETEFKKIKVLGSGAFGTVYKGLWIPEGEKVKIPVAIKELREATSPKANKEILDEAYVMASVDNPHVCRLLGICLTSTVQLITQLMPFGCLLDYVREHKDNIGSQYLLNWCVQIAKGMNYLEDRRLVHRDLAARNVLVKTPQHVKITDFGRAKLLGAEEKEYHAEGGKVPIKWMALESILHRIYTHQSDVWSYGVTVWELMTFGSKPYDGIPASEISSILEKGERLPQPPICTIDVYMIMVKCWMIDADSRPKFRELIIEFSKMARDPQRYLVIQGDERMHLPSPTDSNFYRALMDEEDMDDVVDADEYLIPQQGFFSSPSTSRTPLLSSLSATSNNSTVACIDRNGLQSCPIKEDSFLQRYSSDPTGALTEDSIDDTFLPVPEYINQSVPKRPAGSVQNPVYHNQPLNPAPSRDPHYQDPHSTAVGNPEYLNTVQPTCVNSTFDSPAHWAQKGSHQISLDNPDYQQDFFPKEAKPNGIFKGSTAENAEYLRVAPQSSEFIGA
As to the kind of experiment: Inhibition of EGFR autophosphorylation (p-EGFR Y1068, western blot) in H3255 cells. The format is cell-based. The following applies: 3 h incubation, densitometry of western blots. How it is done: (§2) Affinity of the cyanoquinolines for EGFR was established by measuring their inhibition of EGFR autophosphorylation via western blot. Cells were seeded in 6 well plates and following 24 h of growth, were subject to overnight serum starvation. The cells were then treated with increasing concentrations of cyanoquinolines prepared in serum free growth media from a DMSO stock (final DMSO concentration < 1%) for 3 h at 37°C, and stimulated for receptor autophosphorylation by addition of 100 ng/mL of EGF during the last 15 minutes of drug incubation. After 3 h the cells were placed on ice, media removed and then the cells were washed two times with ice cold phosphate buffered saline (PBS). Lysates were analysed by western blot to measure changes to p-EGFR Y1068.
(§3) Cells were collected into a microcentrifuge tube and sonicated for 30 seconds on ice. Cellular protein levels were assessed using a bicinchoninic acid (BCA) protein assay kit according to the manufacturer’s instructions (Thermo scientific). […] Samples were transferred to polyvinylidene difluoride (PVDF) membrane using Trans-Blot Turbo system BIO-RAD (Hercules, California, USA). […] The membranes were then incubated overnight with primary antibody prepared in 1% milk or 1% BSA in TBST. […] Membranes were washed a further three times for 10 minutes with TBST. […]
On the technique in general: Immunoblotting shows a protein as a band on a membrane.

Another data set concerns EGFR. The arrangement: method as in PMID 20797871, PMID 24307532. The following applies: cell-free; read-out: IC50 for inhibition of cell-free EGFR phosphorylation; cited from earlier work.
Data set [1] concerns the target T2, EGFR Del E746-A750/T790M (PC9ER cells) (Homo sapiens, UniProt P00533, DEL746-750/T790M).
T2 construct: endogenous in cells; host or cells: PC9ER (Dr Olivier Pardo, Imperial College London)
Briefly: Inhibition of EGFR autophosphorylation (p-EGFR Y1068, western blot) in PC9ER cells. The format is cell-based. How it is done:
as §2
Cells were collected into a microcentrifuge tube and sonicated for 30 seconds on ice. Cellular protein levels were assessed using a bicinchoninic acid (BCA) protein assay kit according to the manufacturer’s instructions (Thermo scientific). […] Samples were transferred to polyvinylidene difluoride (PVDF) membrane using Trans-Blot Turbo system BIO-RAD (Hercules, California, USA). […] The membranes were then incubated overnight with primary antibody prepared in 1% milk or 1% BSA in TBST. […] Membranes were washed a further three times for 10 minutes with TBST. Blots were visualised using chemoluminescence (ECL, GE Healthcare, Little Chalfont, UK) and developed on Amersham Hyperfilm ECL (GE Healthcare). β-Actin was used as a loading control.

The target of data set [2] is T3, EGFR Del E746-A750 (PC9 cells) (Homo sapiens, UniProt P00533, DEL746-750).
T3 construct: endogenous in cells; host or cells: PC9 (Dr Olivier Pardo, Imperial College London)
T3 sequence (P00533 with tags, fused parts or gaps DEL746-750): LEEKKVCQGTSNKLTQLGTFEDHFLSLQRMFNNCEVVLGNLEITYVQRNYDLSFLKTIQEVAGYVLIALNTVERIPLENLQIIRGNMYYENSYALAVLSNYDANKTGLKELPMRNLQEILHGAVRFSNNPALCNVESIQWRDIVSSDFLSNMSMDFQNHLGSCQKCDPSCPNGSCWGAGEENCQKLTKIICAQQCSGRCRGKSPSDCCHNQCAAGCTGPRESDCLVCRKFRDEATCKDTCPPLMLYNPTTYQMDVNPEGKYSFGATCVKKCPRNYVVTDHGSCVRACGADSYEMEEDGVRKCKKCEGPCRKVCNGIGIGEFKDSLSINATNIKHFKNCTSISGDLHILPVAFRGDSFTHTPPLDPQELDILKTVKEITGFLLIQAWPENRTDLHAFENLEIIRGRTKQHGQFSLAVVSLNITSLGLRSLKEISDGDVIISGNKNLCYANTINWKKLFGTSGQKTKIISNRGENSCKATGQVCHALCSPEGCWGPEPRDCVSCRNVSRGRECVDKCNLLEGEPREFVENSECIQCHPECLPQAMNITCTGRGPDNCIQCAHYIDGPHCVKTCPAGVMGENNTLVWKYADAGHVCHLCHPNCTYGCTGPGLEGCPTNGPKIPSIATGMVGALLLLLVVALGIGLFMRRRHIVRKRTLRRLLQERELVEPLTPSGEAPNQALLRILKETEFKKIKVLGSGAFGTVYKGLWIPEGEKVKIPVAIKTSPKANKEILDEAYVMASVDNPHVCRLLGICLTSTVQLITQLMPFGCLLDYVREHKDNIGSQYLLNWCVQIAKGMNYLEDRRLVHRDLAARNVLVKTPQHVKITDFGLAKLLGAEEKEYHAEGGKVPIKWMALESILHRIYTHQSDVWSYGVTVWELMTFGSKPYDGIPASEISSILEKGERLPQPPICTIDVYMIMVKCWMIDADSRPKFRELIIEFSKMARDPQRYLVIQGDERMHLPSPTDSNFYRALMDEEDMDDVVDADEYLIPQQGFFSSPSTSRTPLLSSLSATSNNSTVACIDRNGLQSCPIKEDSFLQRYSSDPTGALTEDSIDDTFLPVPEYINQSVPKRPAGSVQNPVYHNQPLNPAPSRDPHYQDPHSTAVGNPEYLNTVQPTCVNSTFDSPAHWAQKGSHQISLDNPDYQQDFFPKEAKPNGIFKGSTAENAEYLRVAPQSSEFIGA
Briefly: Inhibition of EGFR autophosphorylation (p-EGFR Y1068, western blot) in PC9 cells. The format is cell-based. The following applies: 3 h incubation, densitometry of western blots. How it is done:
as §2, §3

The next data set concerns caco2 cells. Briefly: Caco2 transwell assay. It is filed as in vitro ADME, human. The following applies: pre-treatment with zosuquidar. The procedure: (§4) The caco2 transwell assay was performed to assess permeability. Cells were seeded at a density of 60,000 cells per well in 24 well transwell plates (Millipore, Billerica, Massachutsetts, USA), and maintained in DMEM supplemented with […] glucose (20% FBS, 1% penicillin/streptomycin, 1% glutamine) for 21 days at 37°C in 5% CO2. After 21 days the cells differentiate into enterocytes and express all three MDR proteins, ABCB1 and ABCG2 at the apical side and ABCC1 on the basal side. On day 21, cells were washed three times with Hank's Balanced Salt Solution (HBSS) (Fisher scientific, Loughborough, UK) and the trans-epithelial electric resistance (TERR) was measured using an Epithelial Voltohmmeter (EVOM) (World Precision Instruments, Sarasota, USA); only transwells with TERR of 400 Ω/cm^2 or above were used for the experiment. Cells were treated either at the apical (n = 3) or basal (n = 3) side of the transwell by addition of 10 μM of cyanoquinoline compound or 50 μM vinblastine prepared in a volume of 400 μL HBSS (compound added to apical well) or 800 μL of HBSS (added to basal well). When transport inhibitors FTC (10 μM) or zosuquidar (0.3 μM) were used, they were added to both the apical and basal wells 1 h prior to drug treatment. After 1 h pre-treatment the medium was removed and cells were treated with the compounds prepared in HBSS containing FTC or Zosuquidar.
(§5) Plates were incubated in shaker incubator at 37°C and 60 rpm for 120 min. After incubation, 200 μL aliquots from the apical and the basal wells were collected and analysed using high performance liquid chromatography (HPLC). Samples were run on a Millipore Waters HPLC system which included a 717 plus autosampler and 2487 dual wavelength absorbance detector system. The stationary phase comprised of a Phenomenex Luna C18 reverse phase column (150 X 4.6 mm; 5 μm particle size). The mobile phase comprised water (0.1% TFA) and acetonitrile (0.1% TFA) (80:20 v/v) at a flow rate of 1 mL/min for all compounds except vinblastine. For vinblastine, the stationary phase comprised a Supelcosil LC-ABZ reverse phase column (5 × 4.6 mm; 5 μm particle size). The mobile phase comprised water (0.1% formic acid) and methanol (90:10 to 10:90 v/v gradient over 20 min). Peak areas corresponding to the compounds of interest were recorded. Using standard curves the areas under the curve were converted into concentrations of compound. The permeability coefficient (Papp) was calculated using the following equation [30]: Papp = (dQ/dt)/A C0, where A is the surface area of the transwell membrane in cm^2 (= 0.33 cm^2), C0 is the drug concentration in the donor chamber at time t = 0 and dQ/dt is the rate of transfer of the compound to the receiver chamber, determined from the slope of the graph concentration (dQ) versus time (dt). Papp values corresponding to absorption and secretion were assessed and used to calculate efflux ratio. Efflux ratio =(Papp B−A)/(Papp A−B) Where Papp A-B = Papp absorption and Papp B-A = Papp secretion.
(§6) The integrity of the caco2 cell membrane was assessed for each well following the experiment by addition of a 100 μM solution of […] (Sigma) in HBSS to the apical side of the plate. The plates were placed in the shaker incubator for 1 h at 37°C and 60 rpm. Samples from the basal wells were transferred into a 96 well plate and the levels of […] were assessed by measuring with an excitation of 450 nm and an emission of 540 nm using the PerkinElmer Wallac 1420 counter.

A further data set is described as follows: Caco2 transwell assay. It is filed as in vitro ADME, human. The following applies: human, Caco-2, no inhibitor; 10 μM cyanoquinoline or 50 μM vinblastine, 120 min; read-out: efflux ratio (Papp B-A / Papp A-B). The procedure:
as §4, §5, §6
(In general: Caco-2 cells form a polarised layer with tight junctions and transporters.)

For data set [3], the target named is T4, EGFR L858R/T790M (H1975 cells) (Homo sapiens, UniProt P00533, L858R/T790M).
T4 construct: host or cells: H1975
T4 sequence (P00533 25-1210 T790M/L858R): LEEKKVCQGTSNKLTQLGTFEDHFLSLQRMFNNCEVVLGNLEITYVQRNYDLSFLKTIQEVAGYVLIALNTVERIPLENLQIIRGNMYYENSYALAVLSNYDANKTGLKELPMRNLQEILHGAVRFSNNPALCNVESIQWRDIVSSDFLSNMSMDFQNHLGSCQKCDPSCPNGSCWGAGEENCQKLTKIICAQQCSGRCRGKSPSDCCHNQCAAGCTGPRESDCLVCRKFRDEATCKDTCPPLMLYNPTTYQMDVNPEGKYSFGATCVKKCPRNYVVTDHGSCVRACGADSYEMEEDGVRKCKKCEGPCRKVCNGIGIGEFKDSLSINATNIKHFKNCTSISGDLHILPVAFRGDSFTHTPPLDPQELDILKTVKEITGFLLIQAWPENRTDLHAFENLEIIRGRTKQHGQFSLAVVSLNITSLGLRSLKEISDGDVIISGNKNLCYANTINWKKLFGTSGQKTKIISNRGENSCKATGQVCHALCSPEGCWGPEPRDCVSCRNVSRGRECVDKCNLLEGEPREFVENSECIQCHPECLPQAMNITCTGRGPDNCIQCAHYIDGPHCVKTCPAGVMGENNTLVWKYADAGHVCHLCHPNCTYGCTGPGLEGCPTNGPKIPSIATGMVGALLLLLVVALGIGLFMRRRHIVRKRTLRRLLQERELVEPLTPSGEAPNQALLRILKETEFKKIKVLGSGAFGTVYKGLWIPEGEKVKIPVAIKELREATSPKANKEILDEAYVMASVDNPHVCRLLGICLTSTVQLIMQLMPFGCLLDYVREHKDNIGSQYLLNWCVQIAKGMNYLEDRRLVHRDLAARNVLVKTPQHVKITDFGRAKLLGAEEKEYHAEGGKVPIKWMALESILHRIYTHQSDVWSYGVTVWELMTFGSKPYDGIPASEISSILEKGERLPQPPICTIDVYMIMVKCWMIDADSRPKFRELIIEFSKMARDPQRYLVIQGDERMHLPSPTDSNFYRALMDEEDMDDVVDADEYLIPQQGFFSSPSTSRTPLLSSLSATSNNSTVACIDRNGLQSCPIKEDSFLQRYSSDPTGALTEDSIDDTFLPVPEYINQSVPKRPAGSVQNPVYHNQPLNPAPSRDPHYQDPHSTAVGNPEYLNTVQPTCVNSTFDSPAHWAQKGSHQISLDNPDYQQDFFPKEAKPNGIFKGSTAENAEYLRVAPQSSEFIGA
As to the kind of experiment: Inhibition of EGFR autophosphorylation (p-EGFR Y1068, western blot) in H1975 cells. It is filed as cell-based. The following applies: 3 h incubation, densitometry of western blots. The procedure:
as §2, §3

T2 sequence (P00533 with tags, fused parts or gaps DEL746-750/T790M): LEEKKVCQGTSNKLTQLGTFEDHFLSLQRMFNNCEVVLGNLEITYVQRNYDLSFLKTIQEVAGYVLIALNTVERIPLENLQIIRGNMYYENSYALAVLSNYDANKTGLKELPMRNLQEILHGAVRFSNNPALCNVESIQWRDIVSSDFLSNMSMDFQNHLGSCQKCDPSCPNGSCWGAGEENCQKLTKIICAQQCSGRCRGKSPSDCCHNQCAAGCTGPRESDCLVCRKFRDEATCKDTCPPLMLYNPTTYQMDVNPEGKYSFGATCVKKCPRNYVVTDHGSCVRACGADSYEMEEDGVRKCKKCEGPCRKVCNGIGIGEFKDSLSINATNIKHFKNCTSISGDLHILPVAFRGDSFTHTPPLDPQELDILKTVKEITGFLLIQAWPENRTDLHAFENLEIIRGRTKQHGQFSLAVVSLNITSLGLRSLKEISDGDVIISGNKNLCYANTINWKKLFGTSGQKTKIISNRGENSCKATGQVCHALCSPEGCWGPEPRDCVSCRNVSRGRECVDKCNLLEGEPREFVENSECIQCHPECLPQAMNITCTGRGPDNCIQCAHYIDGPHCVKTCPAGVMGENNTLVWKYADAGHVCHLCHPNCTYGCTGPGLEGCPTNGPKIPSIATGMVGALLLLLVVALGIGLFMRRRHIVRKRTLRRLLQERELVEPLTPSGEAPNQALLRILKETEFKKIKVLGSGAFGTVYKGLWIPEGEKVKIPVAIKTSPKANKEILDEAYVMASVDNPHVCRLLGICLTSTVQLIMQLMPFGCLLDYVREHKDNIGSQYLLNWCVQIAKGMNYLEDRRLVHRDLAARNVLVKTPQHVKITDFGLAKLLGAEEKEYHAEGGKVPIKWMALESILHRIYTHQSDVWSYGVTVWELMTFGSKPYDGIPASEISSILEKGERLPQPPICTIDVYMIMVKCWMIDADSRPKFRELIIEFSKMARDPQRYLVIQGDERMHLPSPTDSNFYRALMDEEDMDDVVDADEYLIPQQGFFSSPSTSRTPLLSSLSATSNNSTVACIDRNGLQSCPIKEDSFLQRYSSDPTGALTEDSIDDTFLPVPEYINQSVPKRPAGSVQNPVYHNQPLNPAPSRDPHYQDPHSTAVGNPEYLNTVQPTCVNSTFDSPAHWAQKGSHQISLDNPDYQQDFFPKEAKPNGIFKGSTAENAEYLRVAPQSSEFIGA

In the case of `CCOc1cc2ncc(C#N)c(Nc3ccc(F)c(Cl)c3)c2cc1NC(=O)/C=C/CNCc1cn([C@@H]2OC(CO)[C@@H](O)C(O)C2[18F])nn1` (stereo partly drawn) [[^18F]FED20, [^18F](2E)-N-{4-[(3-chloro-4-fluorophenyl)amino]-3-cyano-7-ethoxyquinolin-6-yl}-4-[({1-[(2R,5S)-3-fluoro-4,5-dihydroxy-6-(hydroxymethyl)oxan-2-yl]-1H-1,2,3-triazol-4-yl}methyl)amino]but-2-enamide], the “fold higher uptake in PC9 compared to PC9ER cells” value with PC9 and PC9ER cells came out at 2 fold. Further, the “fold lower magnitude of uptake than [^18F]FED6” value in the data set with cells is listed as greater than 5 fold.

The IC50 is the concentration that gives 50% inhibition. Take `CCOc1cc2ncc(C#N)c(Nc3ccc(F)c(Cl)c3)c2cc1NC(=O)/C=C/CNCc1cn([C@@H]2OC(CO)[C@@H](O)C(O)C2F)nn1` (stereo partly drawn) [FED20, (2E)-N-{4-[(3-chloro-4-fluorophenyl)amino]-3-cyano-7-ethoxyquinolin-6-yl}-4-[({1-[(2R,5S)-3-fluoro-4,5-dihydroxy-6-(hydroxymethyl)oxan-2-yl]-1H-1,2,3-triazol-4-yl}methyl)amino]but-2-enamide]: the IC50 on EGFR L858R (H3255 cells) was 300 nM; in the data set on EGFR it was 4.5 nM; in data set [1] (3 h incubation, densitometry of western blots), 700 nM; in [2] it was 300 nM; in data set [3], 7100 nM. Moreover, the “fold higher IC50 (p-EGFR) in PC9ER compared to PC9” value in data set [1] (PC9ER versus isogenic PC9) is recorded as 2 fold. The “efflux (permeability) ratio after pre-treatment with zosuquidar” value in the data set with caco2 cells is on record as “did not have any effect”. In addition, the efflux ratio at 120 min in the data set “Caco2 transwell assay” was found to be 1.3.

The values above are taken from article PMC4995014, “Identification of ABC Transporter Interaction of a Novel Cyanoquinoline Radiotracer and Implications for Tumour Imaging by Positron Emission Tomography” (PLoS ONE, 2016).
